biological target: T1, androgen receptor (Homo sapiens, UniProt P10275); assay: AR Antagonist Cell Assay (MMTV-luciferase reporter, DHT-stimulated); type: cell-based; conditions: MDA-MB453-MMTV clone 54-19 cells; antagonism of 100 pM DHT, 17 hr, luciferase readout
T1 sequence (P10275 1-920 Q868H): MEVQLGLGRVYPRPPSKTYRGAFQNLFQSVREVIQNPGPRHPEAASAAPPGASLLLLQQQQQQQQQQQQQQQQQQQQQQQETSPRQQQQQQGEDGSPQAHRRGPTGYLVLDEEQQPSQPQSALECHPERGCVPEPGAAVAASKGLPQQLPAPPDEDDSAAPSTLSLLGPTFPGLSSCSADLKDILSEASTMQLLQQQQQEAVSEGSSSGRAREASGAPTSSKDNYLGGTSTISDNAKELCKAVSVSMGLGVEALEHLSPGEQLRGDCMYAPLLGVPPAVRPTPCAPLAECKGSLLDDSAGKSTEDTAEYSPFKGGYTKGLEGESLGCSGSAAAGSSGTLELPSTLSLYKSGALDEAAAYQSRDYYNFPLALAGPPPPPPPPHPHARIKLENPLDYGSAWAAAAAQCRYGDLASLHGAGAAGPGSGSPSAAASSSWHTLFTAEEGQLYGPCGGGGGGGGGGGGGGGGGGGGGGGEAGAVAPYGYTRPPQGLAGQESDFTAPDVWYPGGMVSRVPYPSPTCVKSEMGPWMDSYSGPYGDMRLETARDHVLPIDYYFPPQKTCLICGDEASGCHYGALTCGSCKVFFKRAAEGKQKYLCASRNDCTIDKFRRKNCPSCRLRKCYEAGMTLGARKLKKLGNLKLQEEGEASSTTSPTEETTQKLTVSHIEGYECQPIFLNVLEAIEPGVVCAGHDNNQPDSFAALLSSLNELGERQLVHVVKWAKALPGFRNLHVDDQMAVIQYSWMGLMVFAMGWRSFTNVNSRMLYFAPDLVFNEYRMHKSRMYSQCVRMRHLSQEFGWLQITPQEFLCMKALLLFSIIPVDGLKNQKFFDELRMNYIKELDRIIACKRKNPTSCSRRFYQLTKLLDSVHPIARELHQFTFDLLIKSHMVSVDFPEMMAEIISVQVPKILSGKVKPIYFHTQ
Method in brief: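 MDA-MB453 cells stably carrying MMTV-ARE-firefly luciferase, in 1% charcoal-treated serum, preincubated 30 min with compound (10 uM or 1 uM) then stimulated with 100 pM DHT for 17 h at 37° C. Luminescence read; result as % inhibition of DHT fold induction.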

| SMILES | IC50 |
| --- | --- |
| CC(C)(NS(=O)(=O)c1ccc(Cc2ccc3oc(=O)cc(C(F)(F)F)c3c2)cc1)c1ccccc1 [Example 179, N-(1-Methyl-1-phenylethyl)-4-(2-oxo-4-trifluoromethyl-2H-chromen-6-ylmethyl)benzenesulfonamide] | > 10 µM |
| O=c1cc(C(F)(F)F)c2cc(Cc3ccc(S(=O)(=O)NCc4ccc(F)cc4)cc3)ccc2o1 [Example 173, N-(4-Fluorobenzyl)-4-(2-oxo-4-trifluoromethyl-2H-chromen-6-ylmethyl)benzenesulfonamide] | 7.68 µM |
| Cc1ccc(F)c(CNS(=O)(=O)c2ccc(Cc3ccc4[nH]c(=O)cc(C(F)(F)F)c4c3)cc2)c1Cl [Example 84, N-(2-Chloro-6-fluoro-3-methylbenzyl)-4-(2-oxo-4-trifluoromethyl-1,2-dihydroquinolin-6-ylmethyl)-benzenesulfonamide] | > 10 µM |
| O=c1cc(C(F)(F)F)c2cc(Cc3ccc(S(=O)(=O)Nc4cc(F)c(F)c(F)c4)cc3)ccc2[nH]1 [Example 35, 4-(2-Oxo-4-trifluoromethyl-1,2-dihydroquinolin-6-ylmethyl)-N-(3,4,5-trifluorophenyl)-benzenesulfonamide] | > 10 µM |
| CC(C)(C)SCCNS(=O)(=O)c1ccc(Cc2ccc3[nH]c(=O)cc(C(F)(F)F)c3c2)cc1 [Example 82, N-(2-tert-Butylsulfanylethyl)-4-(2-oxo-4-trifluoromethyl-1,2-dihydroquinolin-6-ylmethyl)-benzenesulfonamide] | > 10 µM |
| CC(C)(C)c1cc(NS(=O)(=O)c2ccc(Cc3ccc4oc(=O)cc(C(F)(F)F)c4c3)cc2)cc(C(C)(C)C)c1 [Example 153, N-(3,5-Di-tert-butylphenyl)-4-(2-oxo-4-trifluoromethyl-2H-chromen-6-ylmethyl)-benzenesulfonamide] | > 10 µM |
| O=c1cc(C(F)(F)F)c2cc(Cc3ccc(S(=O)(=O)NCCc4c[nH]c5ccccc45)cc3)ccc2[nH]1 [Example 79, N-[2-(1H-Indol-3-yl)ethyl]-4-(2-oxo-4-trifluoromethyl-1,2-dihydroquinolin-6-ylmethyl)-benzenesulfonamide] | 10.3 µM |
| O=c1cc(C(F)(F)F)c2cc(Cc3ccc(S(=O)(=O)NC4(CO)CCCC4)cc3)ccc2o1 [Example 167, N-(1-Hydroxymethyl-cyclopentyl)-4-(2-oxo-4-trifluoromethyl-2H-chromen-6-ylmethyl)benzenesulfonamide] | > 10 µM |
| Cc1ccc(-c2ccccc2)cc1NS(=O)(=O)c1ccc(Cc2ccc3[nH]c(=O)cc(C(F)(F)F)c3c2)cc1 [Example 22, N-(4-Methylbiphenyl-3-yl)-4-(2-oxo-4-trifluoromethyl-1,2-dihydroquinolin-6-ylmethyl)-benzenesulfonamide] | > 10 µM |
| O=c1cc(C(F)(F)F)c2cc(Cc3ccc(S(=O)(=O)Nc4cccc5c4OC(F)(F)C(F)(F)O5)cc3)ccc2[nH]1 [Example 47, 4-(2-Oxo-4-trifluoromethyl-1,2-dihydroquinolin-6-ylmethyl)-N-(2,2,3,3-tetrafluoro-2,3-dihydrobenzo[1,4]dioxin-5-yl)-benzenesufonamide] | > 10 µM |
| O=c1cc(C(F)(F)F)c2cc(Cc3ccc(S(=O)(=O)NCc4c(F)ccc(F)c4Cl)cc3)ccc2[nH]1 [Example 87, N-(2-Chloro-3,6-difluorobenzyl)-4-(2-oxo-4-trifluoromethyl-1,2-dihydroquinolin-6-ylmethyl)-benzenesulfonamide] | > 10 µM |
| Cc1ccccc1CNS(=O)(=O)c1ccc(Cc2ccc3oc(=O)cc(C(F)(F)F)c3c2)cc1 [Example 171, N-(2-Methylbenzyl)-4-(2-oxo-4-trifluoromethyl-2H-chromen-6-ylmethyl)benzenesulfonamide] | 9.62 µM |
| O=c1cc(C(F)(F)F)c2cc(Cc3ccc(S(=O)(=O)NCc4cc(Cl)ccc4F)cc3)ccc2[nH]1 [Example 76, N-(5-Chloro-2-fluorobenzyl)-4-(2-oxo-4-trifluoromethyl-1,2-dihydroquinolin-6-ylmethyl)-benzenesulfonamide] | > 10 µM |
| O=c1cc(C(F)(F)F)c2cc(Cc3ccc(S(=O)(=O)Nc4cccc(OC(F)(F)F)c4)cc3)ccc2[nH]1 [Example 42, 4-(2-Oxo-4-trifluoromethyl-1,2-dihydroquinolin-6-ylmethyl)-N-(3-trifiuoromethoxyphenyl)-benzenesulfonamide] | > 10 µM |
| CCCN(CC1CC1)S(=O)(=O)c1ccc(Cc2ccc3[nH]c(=O)cc(C(F)(F)F)c3c2)cc1 [Example 9A, N-Cyclopropylmethyl-4-(2-oxo-trifluoromethyl-1,2-dihydroquinolin-6-ylmethyl)-N-propylbenzenesulfonamide] | 6.29 µM |

Next, values leading:

| IC50 | SMILES |
| --- | --- |
| 1.97 µM | O=c1cc(C(F)(F)F)c2cc(Cc3ccc(S(=O)(=O)Nc4ccc(Cl)cc4)cc3)ccc2[nH]1 [Example 26, N-(4-Chlorophenyl)-4-(2-oxo-4-trifluoromethyl-1,2-dihydroquinolin-6-ylmethyl)-benzenesulfonamide] |
| 3.43 µM | CCOC(=O)CC(NS(=O)(=O)c1ccc(Cc2ccc3oc(=O)cc(C(F)(F)F)c3c2)cc1)c1ccccc1 (stereo not shown) [Example 205, 3-[4-(2-Oxo-4-trifluoromethyl-2H-chromen-6-ylmethyl)-benzenesulfonylamino]-3-phenylpropionic acid ethyl ester] |
| 4.77 µM | O=c1cc(C(F)(F)F)c2cc(Cc3ccc(S(=O)(=O)Nc4cccc5c4CCC5)cc3)ccc2o1 [Example 128, N-Indan-4-yl-4-(2-oxo-4-trifluoromethyl-2H-chromen-6-ylmethyl)benzenesulfonamide] |
| 4.08 µM | COc1ccccc1NS(=O)(=O)c1ccc(Cc2ccc3oc(=O)cc(C(F)(F)F)c3c2)cc1 [Example 123, N-(2-Methoxyphenyl)-4-(2-oxo-4-trifluoromethyl-2H-chromen-6-ylmethyl)-benzenesulfonamide] |
| 2.62 µM | O=c1cc(C(F)(F)F)c2cc(Cc3ccc(S(=O)(=O)NCc4cc(C(F)(F)F)ccc4F)cc3)ccc2[nH]1 [Example 90, N-(2-Fluoro-5-trifluoromethylbenzyl)-4-(2-oxo-4-trifluoromethyl-1,2-dihydroquinolin-6-ylmethyl)-benzenesutfonamide] |
| 4.72 µM | CN(CCC#N)S(=O)(=O)c1ccc(Cc2ccc3oc(=O)cc(C(F)(F)F)c3c2)cc1 [Example 108, N-(2-Cyanoethyl)-N-methyl-4-(2-oxo-4-trifluoromethyl-2H-chromen-6-ylmethyl)-benzenesulfonamide] |
| 2.4 µM | O=c1cc(C(F)(F)F)c2cc(Cc3ccc(S(=O)(=O)Nc4ccc5c(c4)OCO5)cc3)ccc2o1 [Example 131, N-Benzo[1,3]dioxol-5-yl-4-(2-oxo-4-trifluoromethyl-2H-chromen-6-ylmethyl)-benzenesulfonamide] |
| 6.5 µM | O=c1cc(C(F)(F)F)c2cc(Cc3ccc(S(=O)(=O)NC4CCCC4)cc3)ccc2o1 [Example 158, N-Cyclopentyl-4-(2-oxo-4-trifluoromethyl-2H-chromen-6-ylmethyl)benzenesulfonamide] |
| 1.83 µM | O=c1cc(C(F)(F)F)c2cc(Cc3ccc(S(=O)(=O)Nc4cccc(CO)c4)cc3)ccc2o1 [Example 122, N-(3-Hydroxymethylphenyl)-4-(2-oxo-4-trifluoromethyl-2H-chromen-6-ylmethyl)-benzenesulfonamide] |
| 2.8 µM | C#Cc1ccc(NS(=O)(=O)c2ccc(Cc3ccc4[nH]c(=O)cc(C(F)(F)F)c4c3)cc2)cc1 [Example 15, N-(4-Ethynylphenyl)-4-(2-oxo-4-trifluoromethyl-1,2-dihydroquinolin-ylmethyl)benzenesulfonamide] |
